Data reported in ChEMBL document CHEMBL4020811, “JAK2 JH2 Fluorescence Polarization Assay and Crystal Structures for Complexes with Three Small Molecules” (ACS Med Chem Lett, 2017).
pKd: −log10 of the molar value.

target: Tyrosine-protein kinase JAK2 (Homo sapiens, UniProt O60674); test: Binding affinity to wild type JAK2 JH2 domain (unknown origin) by competitive fluorescence polarization assay
Sequence (O60674 whole entry, the tested form may be a part): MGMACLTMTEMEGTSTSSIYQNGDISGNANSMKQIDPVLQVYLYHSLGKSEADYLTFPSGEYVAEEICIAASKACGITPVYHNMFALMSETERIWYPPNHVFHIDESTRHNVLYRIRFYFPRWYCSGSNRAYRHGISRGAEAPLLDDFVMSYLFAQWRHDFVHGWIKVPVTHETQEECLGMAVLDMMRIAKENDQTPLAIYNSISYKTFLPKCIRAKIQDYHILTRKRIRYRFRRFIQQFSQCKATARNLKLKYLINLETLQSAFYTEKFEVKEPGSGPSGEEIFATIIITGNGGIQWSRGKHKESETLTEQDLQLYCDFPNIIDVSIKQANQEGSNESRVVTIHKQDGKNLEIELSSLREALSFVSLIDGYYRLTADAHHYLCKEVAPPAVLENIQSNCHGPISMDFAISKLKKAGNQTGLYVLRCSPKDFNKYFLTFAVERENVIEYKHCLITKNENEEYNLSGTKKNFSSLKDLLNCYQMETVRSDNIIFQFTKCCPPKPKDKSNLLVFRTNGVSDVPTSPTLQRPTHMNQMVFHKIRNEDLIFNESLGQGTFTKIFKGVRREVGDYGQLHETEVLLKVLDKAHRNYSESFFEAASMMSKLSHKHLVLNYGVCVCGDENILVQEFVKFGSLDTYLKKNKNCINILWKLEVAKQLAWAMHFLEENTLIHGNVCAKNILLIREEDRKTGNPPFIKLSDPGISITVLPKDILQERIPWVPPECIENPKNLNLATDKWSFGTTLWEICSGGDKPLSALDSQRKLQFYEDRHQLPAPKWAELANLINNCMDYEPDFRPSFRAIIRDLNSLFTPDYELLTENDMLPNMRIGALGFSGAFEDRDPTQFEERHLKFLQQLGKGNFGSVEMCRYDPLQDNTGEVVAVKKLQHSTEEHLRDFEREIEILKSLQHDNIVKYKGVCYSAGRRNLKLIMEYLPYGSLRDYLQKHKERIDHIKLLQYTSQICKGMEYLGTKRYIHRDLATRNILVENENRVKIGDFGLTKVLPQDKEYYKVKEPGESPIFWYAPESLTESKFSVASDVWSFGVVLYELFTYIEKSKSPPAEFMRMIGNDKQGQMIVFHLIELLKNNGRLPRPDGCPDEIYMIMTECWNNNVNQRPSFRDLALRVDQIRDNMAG

| SMILES | pKd |
| --- | --- |
| CN(Cc1ccc(Nc2nc(N)n(C(=O)c3c(F)cccc3F)n2)cc1)C(=S)Nc1ccc2c(c1)C(=O)OC21c2ccc(O)cc2Oc2cc(O)ccc21 | 6.69 |
| N#Cc1ccc(Nc2nc(N)cc(-n3ccc(CO)n3)n2)cc1 | 4.24 |
| N#Cc1ccc(Nc2nc(N)nc(-c3ccc(CO)o3)n2)cc1 | 3.91 |
| CS(=O)(=O)NCc1cn(-c2nc(N)nc(Nc3ccc(C#N)cc3)n2)nn1 | 3.97 |
| Cc1cc(C)n2c1C=C1C=CC(CCC(=O)NCCNC(=O)O[C@H]3[C@@H](O)[C@H](n4cnc5c(N)ncnc54)O[C@@H]3COP(=O)(O)OP(=O)(O)OP(=O)(O)O)=[N+]1[B-]2(F)F | 5.15 |
| Nc1nc(Nc2ccc(C(=O)NCCCCCNC(=S)Nc3ccc4c(c3)C(=O)OC43c4ccc(O)cc4Oc4cc(O)ccc43)cc2)nn1C(=O)c1c(F)cccc1F | 6.64 |
